Series [1] can be described thus: in vitro. The note with it: dog.
For series [2], the system named is A/California/04/2009 (H1N1). Nature of the series: microbe, parasite or virus in culture. It counts as cell-based. The note with it: Influenza A virus.
The test system of series [3] is A/chicken/Egypt/B13825A/2017 (H5N1wild). Nature of the series: microbe, parasite or virus in culture. It counts as cell-based. The settings on record: Influenza A virus.
Series [4] has as its system H5N1N295S virus. It counts as cell-based, influenza A virus. The settings on record: read-out: IC50 (50% Inhibitory Concentration) H5N1N295S.
The test system of series [5] is H5N1V116A virus. It counts as cell-based, influenza A virus. The settings on record: read-out: IC50 (50% Inhibitory Concentration) H5N1V116A.
In series [6] the test system is H5N1wild virus. The settings on record: mouse, in vivo.
The conditions of series [7]: mouse, in vivo.
Series [8] has as its system H5N1N295S virus. It counts as cell-based, influenza A virus.
The test system of series [9] is H1N1 virus. It counts as cell-based.
Series [10] concerns H5N1wild virus. It counts as cell-based.
Series [11] concerns H5N1V116A virus. It counts as cell-based, influenza A virus.
In series [12] the test system is H1N1 virus. The settings on record: mouse, in vivo.
The mark [13] stands for this setting: H1N1, read-out: IC50 (50% Inhibitory Concentration) H1N1.
Setting [14] is: H1N1, read-out: IC50 H1N1 (Figure 5).
[15] abbreviates: read-out: IC50 (50% Inhibitory Concentration) H5N1wild.

pIC50: −log10 of the molar value. Like-named read-outs stand apart in the source and are kept apart here.

The record followed here is publication PMC8950700 (Pharmaceuticals, 2022).

For the molecule `CC(=O)OC[C@H]1O[C@@H](OCc2cn(Cc3nc4ccccc4[nH]3)nn2)[C@H](OC(C)=O)[C@@H](OC(C)=O)[C@@H]1OC(C)=O` [Compound 7a, (2R,3R,4S,5R,6R)-2-((1-((1H-Benzo[d]imidazol-2-yl)methyl)-1H-1,2,3-triazol-4-yl)methoxy)-6-(acetoxymethyl)tetrahydro-2H-pyran-3,4,5-triyl Triacetate], the CC50 at 72 h in series [1] was 685 µM. For the same molecule, the pIC50 in [2] (setting [13]) was 4.07; in [2] (setting [14]), 4.07; in series [3] (setting [15]), 3.49; in series [3] (read-out: IC50 H5N1wild (Figure 5)), 3.49; in series [4] it was 3.55; in series [5] it was 4.32.
`CC(=O)OC[C@H]1O[C@@H](OCc2cn(Cc3nc4ccccc4o3)nn2)[C@H](OC(C)=O)[C@@H](OC(C)=O)[C@@H]1OC(C)=O` [Compound 7b, (2R,3R,4S,5R,6R)-2-(Acetoxymethyl)-6-((1-(benzo[d]oxazol-2-ylmethyl)-1H-1,2,3-triazol-4-yl)methoxy)tetrahydro-2H-pyran-3,4,5-triyl Triacetate] had a CC50 at 72 h in series [1] of 1050 µM. The pIC50 is 5.77 in series [2] (setting [13]); 5.77 in series [2] (setting [14]); 4.43 in [3] (setting [15]); 4.81 in [4]; 4.65 in [5].
The molecule `CC(=O)OC[C@H]1O[C@@H](OCc2cn(Cc3nc4ccccc4s3)nn2)[C@H](OC(C)=O)[C@@H](OC(C)=O)[C@@H]1OC(C)=O` [Compound 7c, (2R,3R,4S,5R,6R)-2-(Acetoxymethyl)-6-((1-(benzo[d]thiazol-2-ylmethyl)-1H-1,2,3-triazol-4-yl)methoxy)tetrahydro-2H-pyran-3,4,5-triyl Triacetate] returned a CC50 at 72 h in series [1] of 764 µM. Also, the pIC50 in [2] (setting [13]) is 5.78; in series [2] (setting [14]), 5.78; in [3] (setting [15]), 5.79; in [4], 4.43; in series [5], 4.95.
As for `CC(=O)OC[C@H]1O[C@@H](OCc2cn(Cc3nc4ccccc4[nH]3)nn2)[C@H](OC(C)=O)[C@@H](OC(C)=O)[C@H]1OC(C)=O` [Compound 8a, (2R,3R,4S,5S,6R)-2-((1-((1H-Benzo[d]imidazol-2-yl)methyl)-1H-1,2,3-triazol-4-yl)methoxy)-6-(acetoxymethyl)tetrahydro-2H-pyran-3,4,5-triyl Triacetate], the CC50 at 72 h in [1] turned out to be 503 µM. Further, the pIC50 was 5.79 in series [2] (setting [13]), 4.58 in [3] (setting [15]), 4.64 in series [4] and 3.03 in [5].
Consider `CC(=O)OC[C@H]1O[C@@H](OCc2cn(Cc3nc4ccccc4o3)nn2)[C@H](OC(C)=O)[C@@H](OC(C)=O)[C@H]1OC(C)=O` [Compound 8b, (2R,3S,4S,5R,6R)-2-(Acetoxymethyl)-6-((1-(benzo[d]oxazol-2-ylmethyl)-1H-1,2,3-triazol-4-yl)methoxy)tetrahydro-2H-pyran-3,4,5-triyl Triacetate], for which the CC50 at 72 h in [1] was 788 µM. For the same molecule, the “survival after infection with H5N1wild” value in series [6] was 60%. Also, in [7], the “external observations of mice” value is listed as “normal in external observations”. Further, the ALT in series [7] (20 mg/kg) is 10.66 ± 4.32; in series [7] (40 mg/kg), 8.20 ± 2.62; in [7] (80 mg/kg), 6.72 ± 1.47. Moreover, the results for the AST in series [7] (20 mg/kg), in series [7] (40 mg/kg) and in series [7] (80 mg/kg) were 15 ± 3.41, 15.77 ± 0.9944 and 16 ± 5.099, respectively. In addition, the Creatinine in series [7] (20 mg/kg) was 0.17 ± 0.04; in series [7] (40 mg/kg), 0.13 ± 0.04; in series [7] (80 mg/kg) it was 0.10 ± 0.02. For the same molecule, the values for the Urea in [7] (20 mg/kg), in series [7] (40 mg/kg) and in [7] (80 mg/kg) were 9.00 ± 3.81, 6.66 ± 1.54 and 7.32 ± 3.90, respectively. In addition, the pIC50 in series [2] (setting [13]) was 5.77; in [2] (setting [14]), 5.77; in series [3] (setting [15]), 5.06; in series [4], 4.71; in series [5], 4.79. In addition, in series [8], the “inhibition in the viral HA titer, H5N1N295S” value (“inhibition … H5N1N295S” for short) was “not more than 60%”. Besides, in [9], the “inhibition in the viral HA titer, H1N1” value is “more than 80%”. Also, in [10], the “inhibition in the viral HA titer, H5N1wild” value (“inhibition … H5N1wild” for short) was “more than 80%”. Further, the “inhibition in the viral HA titer, H5N1V116A” value (“inhibition … H5N1V116A” below) in [11] was “more than 80%”. Moreover, the “survival after infection with H1N1” value in series [12] is given as 60%.
In the case of `CC(=O)OC[C@H]1O[C@@H](OCc2cn(Cc3nc4ccccc4s3)nn2)[C@H](OC(C)=O)[C@@H](OC(C)=O)[C@H]1OC(C)=O` [Compound 8c, (2R,3S,4S,5R,6R)-2-(Acetoxymethyl)-6-((1-(benzo[d]thiazol-2-ylmethyl)-1H-1,2,3-triazol-4-yl)methoxy)tetrahydro-2H-pyran-3,4,5-triyl Triacetate], the CC50 at 72 h in [1] turned out to be 312 µM. The pIC50 in series [2] (setting [13]) was 5.79; in series [2] (setting [14]), 5.78; in series [3] (setting [15]), 5.78; in series [4], 4.19; in series [5], 4.16.
On to `CC(=O)O[C@@H]1[C@@H](OC(C)=O)[C@H](OCc2cn(Cc3nc4ccccc4[nH]3)nn2)OC[C@H]1OC(C)=O` [Compound 9a, (2R,3R,4S,5R,)-2-((1-((1H-Benzo[d]imidazol-2-yl)methyl)-1H-1,2,3-triazol-4-yl)methoxy)tetrahydro-2H-pyran-3,4,5-triyl Triacetate], for which, in [1], the CC50 at 72 h came out at 795 µM. Also, the “virus shedding in the nasal wash (EID50), H5N1wild” value in series [6] is “reduced the viral shedding”. The “external observations of mice” value in [7] was “normal in external observations”. The results for the ALT in series [7] (20 mg/kg), in [7] (40 mg/kg) and in series [7] (80 mg/kg) were 9.64 ± 3.64, 10.64 ± 1.38 and 8.67 ± 2.16, respectively. Also, the AST in series [7] (20 mg/kg) turned out to be 20 ± 6.957; in series [7] (40 mg/kg), 13.77 ± 1.298; in series [7] (80 mg/kg) it was 15.33 ± 0.9686. The Creatinine in series [7] (20 mg/kg) is listed as 0.13 ± 0.04; in series [7] (40 mg/kg), 0.13 ± 0.04; in [7] (80 mg/kg), 0.17 ± 0.04. For the same molecule, the values for the Urea in series [7] (20 mg/kg), in [7] (40 mg/kg) and in series [7] (80 mg/kg) were 7.32 ± 2.09, 7.32 ± 0.48 and 4.64 ± 1.12, respectively. In addition, the pIC50 in series [2] (setting [13]) is 5.78; in [2] (setting [14]) it was 5.78; in [3] (setting [15]), 5.24; in [4] it was 5.25; in [5], 5.25. The “inhibition … H5N1N295S” value in [8] is recorded as “not more than 50%”. Moreover, the “inhibition in the viral HA titer, H1N1” value in series [9] is listed as “more than 80%”. Also, the “inhibition … H5N1wild” value in series [10] is listed as “not more than 50%”. The “inhibition … H5N1V116A” value in series [11] was “more than 80%”. For the same molecule, in series [12], the “survival after infection with H1N1” value was 60%. Also, in [12], the “viral titer in lung tissue (TCID50), H1N1” value is on record as “significantly reduced the propagation”. Further, the “virus shedding in the nasal wash (EID50), H1N1” value in series [12] was “significantly reduced the viral titer”.
In turn, `CC(=O)O[C@@H]1[C@@H](OC(C)=O)[C@H](OCc2cn(Cc3nc4ccccc4o3)nn2)OC[C@H]1OC(C)=O` [Compound 9b, (2R,3R,4S,5R)-2-((1-(Benzo[d]oxazol-2-ylmethyl)-1H-1,2,3-triazol-4-yl)methoxy)tetrahydro-2H-pyran-3,4,5-triyl Triacetate] had a CC50 at 72 h in series [1] of 478 µM. Also, the pIC50 is 5.77 in series [2] (setting [13]), 5.78 in series [3] (setting [15]), 4.91 in series [4] and 4.25 in series [5].
`CC(=O)O[C@@H]1[C@@H](OC(C)=O)[C@H](OCc2cn(Cc3nc4ccccc4s3)nn2)OC[C@H]1OC(C)=O` [Compound 9c, (2R,3R,4S,5R)-2-((1-(Benzo[d]thiazol-2-ylmethyl)-1H-1,2,3-triazol-4-yl)methoxy)tetrahydro-2H-pyran-3,4,5-triyl Triacetate] displayed a CC50 at 72 h in [1] of 302 µM. The “survival after infection with H5N1wild” value in series [6] is recorded as 80%. Besides, the “viral titer in lung tissue (TCID50), H5N1wild” value in series [6] is listed as “reduced the propagation”. Besides, in [6], the “virus shedding in the nasal wash (EID50), H5N1wild” value is given as “reduced the viral shedding”. Besides, the “external observations of mice” value in series [7] was “normal in external observations”. Further, the ALT in series [7] (20 mg/kg) came to 7.60 ± 1.56; in series [7] (40 mg/kg) it was 7.80 ± 2.07; in series [7] (80 mg/kg), 5.54 ± 1.22. Further, the AST in series [7] (20 mg/kg) is listed as 11.93 ± 3.765; in series [7] (40 mg/kg) it was 9.689 ± 2.922; in series [7] (80 mg/kg), 12.33 ± 3.169. The Creatinine in series [7] (20 mg/kg) came out at 0.14 ± 0.05; in series [7] (40 mg/kg) it was 0.14 ± 0.05; in series [7] (80 mg/kg), 0.13 ± 0.04. For the same molecule, the Urea was 7.90 ± 3.13 in series [7] (20 mg/kg), 3.64 ± 1.49 in series [7] (40 mg/kg) and 4.88 ± 2.13 in [7] (80 mg/kg). Also, the pIC50 is 5.79 in series [2] (setting [13]); 5.78 in series [2] (setting [14]); 5.65 in [3] (setting [15]); 4.26 in series [4]; 5.78 in series [5]. For the same molecule, in series [8], the “inhibition … H5N1N295S” value is “not more than 50%”. For the same molecule, the “inhibition in the viral HA titer, H1N1” value in series [9] is on record as “more than 80%”. The “inhibition … H5N1wild” value in series [10] is “more than 80%”. For the same molecule, the “inhibition … H5N1V116A” value in series [11] is “more than 80%”. Moreover, the “survival after infection with H1N1” value in [12] is listed as “full protection from mortality”. In addition, the “viral titer in lung tissue (TCID50), H1N1” value in series [12] is recorded as “reduced the propagation”.
